These results are taken from article PMC9410420, “Novel Labdane Diterpenes-Based Synthetic Derivatives: Identification of a Bifunctional Vasodilator That Inhibits CaV1.2 and Stimulates KCa1.1 Channels” (Marine Drugs, 2022).

One assay concerns rat aorta rings. The experiment in a line: KCl-induced contraction of rat aorta rings (electromechanical coupling). How it is done:
The abdominal aorta was gently cleaned of adipose and connective tissues and cut into 3-mm wide rings. These were mounted in organ baths between two parallel, L-shaped, stainless-steel hooks, with one fixed in place and the other connected to an isometric transducer. Rings were allowed to equilibrate for 60 min in modified Krebs-Henseleit solution (composition in mM: 118 NaCl, 4.75 KCl, 1.19 KH2PO4, 1.19 MgSO4, 25 NaHCO3, 11.5 glucose, 2.5 CaCl2, gassed with a 95% O2–5% CO2 gas mixture to create a pH of 7.4) under a passive tension of 1 g. During this equilibration period, the solution was changed every 15 min. Isometric tension was recorded using a digital PowerLab data acquisition system (PowerLab 8/30; ADInstruments). Ring viability was assessed by recording the response to 0.3 µM phenylephrine and 60 mM KCl. Where needed, the endothelium was removed by gently rubbing the lumen of the ring with a forceps tip. This procedure was validated by adding 10 µM acetylcholine at the plateau of phenylephrine-induced contraction; a relaxation greater than 70% or less than 10% denoted the presence or absence of functional endothelium, respectively.
Aorta rings were pre-contracted pharmaco-mechanically using 0.3 µM phenylephrine and electromechanically using 25–30 mM or 60 mM KCl. Once the contraction reached a plateau, the compound was added cumulatively into the organ bath. […] The response was calculated as the percentage of phenylephrine- or KCl-induced contraction (taken as 100%).

The target of assay [1] is T1, CaV1.2 channel (Rattus norvegicus, UniProt P22002).
T1 construct: smooth muscle cells were freshly isolated; endogenous in cells; host or cells: freshly isolated rat tail main artery smooth muscle cells
Briefly: Whole-cell patch-clamp, Ba2+ current through CaV1.2 channels (IBa1.2) in rat tail artery myocytes. To be noted: pulses to 10 mV from Vh −50 mV. In kind it is cell-based. How it is done: The tail main artery was dissected free of its connective tissue, and smooth muscle cells were freshly isolated under the following conditions. […] Cells stored in 0.05 mM Ca^2+ external solution containing 20 mM taurine and 0.5 mg/mL BSA at 4 °C under normal air were used for experiments within two days after isolation.
An Axopatch 200B patch-clamp amplifier (Molecular Devices Corporation, Sunnyvale, CA, USA) was used to generate and apply voltage pulses to the clamped cells and record the corresponding membrane currents. Recording electrodes were pulled from borosilicate glass capillaries (WPI, Berlin, Germany) and fire-polished to obtain a pipette resistance of 2–4 MΩ, when filled with an internal solution. At the beginning of each experiment, the junction potential between the pipette and bath solution was electronically adjusted to zero. […] Electrophysiological responses were tested at room temperature (20–22 °C).
The conventional whole-cell patch-clamp method was employed to voltage-clamp smooth muscle cells. The internal solution consisted of (in mM) 100 CsCl, 10 HEPES, 11 EGTA, 2 MgCl2, 1 CaCl2 (pCa 8.4), 5 Na pyruvate, 5 succinic acid, 5 oxaloacetic acid, 3 Na2ATP, and 5 phosphocreatine; pH was adjusted to 7.4 with CsOH. IBa1.2 was recorded in an external solution containing 30 mM TEA and 5 mM Ba^2+. […] Data were collected once the current amplitude had been stabilized (usually 7–10 min after the whole-cell configuration had been obtained).

In assay [2] the target is T1, CaV1.2 channel. Briefly: Voltage dependence of CaV1.2 channel steady-state activation and inactivation in rat tail artery myocytes. In kind it is cell-based. To be noted: for Slope inact (slope factor of inactivation) / V50 inact (50% inactivation potential): Vh −80 mV. From the text:
An Axopatch 200B patch-clamp amplifier (Molecular Devices Corporation, Sunnyvale, CA, USA) was used to generate and apply voltage pulses to the clamped cells and record the corresponding membrane currents. Recording electrodes were pulled from borosilicate glass capillaries (WPI, Berlin, Germany) and fire-polished to obtain a pipette resistance of 2–4 MΩ, when filled with an internal solution. At the beginning of each experiment, the junction potential between the pipette and bath solution was electronically adjusted to zero. After compensation for whole-cell capacitance and series resistance (between 70% and 75%), current signals were low-pass filtered at 1 kHz and digitized at 3 kHz, before being stored on a computer hard disk. Electrophysiological responses were tested at room temperature (20–22 °C).
Cells were continuously superfused with an external solution containing 0.1 mM Ca^2+ and 30 mM TEA using a peristaltic pump (LKB 2132, Bromma, Sweden) at a flow rate of 400 µL/min. The conventional whole-cell patch-clamp method was employed to voltage-clamp smooth muscle cells. The internal solution consisted of (in mM) 100 CsCl, 10 HEPES, 11 EGTA, 2 MgCl2, 1 CaCl2 (pCa 8.4), 5 Na pyruvate, 5 succinic acid, 5 oxaloacetic acid, 3 Na2ATP, and 5 phosphocreatine; pH was adjusted to 7.4 with CsOH. IBa1.2 was recorded in an external solution containing 30 mM TEA and 5 mM Ba^2+. The current was elicited with 250-ms clamp pulses (0.067 Hz) to 10 mV, from a Vh of −50 mV. Data were collected once the current amplitude had been stabilized (usually 7–10 min after the whole-cell configuration had been obtained).
Steady-state activation curves were derived from the current–voltage relationships. Conductance (G) was calculated from the equation G = IBa1.2/(Em − Erev), where: IBa1.2 is the peak current elicited by depolarizing test pulses between −50 mV and 40 mV from a Vh of −50 mV; Em is the membrane potential; and Erev is the reversal potential (estimated from the extrapolated current-voltage curves in Figure 2). Gmax is the maximal Ba^2+ conductance (calculated at potentials ≤40 mV). The G/Gmax ratio was plotted against the membrane potential and fitted to the Boltzmann equation [40]. Steady-state inactivation curves were obtained using a double-pulse protocol. Once various levels of the conditioning potential had been applied for 5 s, followed by a short (5-ms) return to the Vh of −80 mV, a test pulse (250 ms) to 10 mV was delivered to evoke the current. The delay between the conditioning potential and the test pulse allowed the full or near-complete deactivation of the channels, simultaneously avoiding partial recovery from inactivation. K^+ currents were blocked with 30 mM TEA in the external solution and Cs^+ in the internal solution. […] The osmolarity of the 30 mM TEA- and 5 mM Ba^2+-containing external solution (320 mosmol, adjusted with NaCl if required) and that of the internal solution (290 mosmol) were measured with an osmometer (Osmostat OM 6020, Menarini Diagnostics, Florence, Italy).

Read-outs that look alike come from different tables or passages of the source.

T1 sequence (P22002 whole entry): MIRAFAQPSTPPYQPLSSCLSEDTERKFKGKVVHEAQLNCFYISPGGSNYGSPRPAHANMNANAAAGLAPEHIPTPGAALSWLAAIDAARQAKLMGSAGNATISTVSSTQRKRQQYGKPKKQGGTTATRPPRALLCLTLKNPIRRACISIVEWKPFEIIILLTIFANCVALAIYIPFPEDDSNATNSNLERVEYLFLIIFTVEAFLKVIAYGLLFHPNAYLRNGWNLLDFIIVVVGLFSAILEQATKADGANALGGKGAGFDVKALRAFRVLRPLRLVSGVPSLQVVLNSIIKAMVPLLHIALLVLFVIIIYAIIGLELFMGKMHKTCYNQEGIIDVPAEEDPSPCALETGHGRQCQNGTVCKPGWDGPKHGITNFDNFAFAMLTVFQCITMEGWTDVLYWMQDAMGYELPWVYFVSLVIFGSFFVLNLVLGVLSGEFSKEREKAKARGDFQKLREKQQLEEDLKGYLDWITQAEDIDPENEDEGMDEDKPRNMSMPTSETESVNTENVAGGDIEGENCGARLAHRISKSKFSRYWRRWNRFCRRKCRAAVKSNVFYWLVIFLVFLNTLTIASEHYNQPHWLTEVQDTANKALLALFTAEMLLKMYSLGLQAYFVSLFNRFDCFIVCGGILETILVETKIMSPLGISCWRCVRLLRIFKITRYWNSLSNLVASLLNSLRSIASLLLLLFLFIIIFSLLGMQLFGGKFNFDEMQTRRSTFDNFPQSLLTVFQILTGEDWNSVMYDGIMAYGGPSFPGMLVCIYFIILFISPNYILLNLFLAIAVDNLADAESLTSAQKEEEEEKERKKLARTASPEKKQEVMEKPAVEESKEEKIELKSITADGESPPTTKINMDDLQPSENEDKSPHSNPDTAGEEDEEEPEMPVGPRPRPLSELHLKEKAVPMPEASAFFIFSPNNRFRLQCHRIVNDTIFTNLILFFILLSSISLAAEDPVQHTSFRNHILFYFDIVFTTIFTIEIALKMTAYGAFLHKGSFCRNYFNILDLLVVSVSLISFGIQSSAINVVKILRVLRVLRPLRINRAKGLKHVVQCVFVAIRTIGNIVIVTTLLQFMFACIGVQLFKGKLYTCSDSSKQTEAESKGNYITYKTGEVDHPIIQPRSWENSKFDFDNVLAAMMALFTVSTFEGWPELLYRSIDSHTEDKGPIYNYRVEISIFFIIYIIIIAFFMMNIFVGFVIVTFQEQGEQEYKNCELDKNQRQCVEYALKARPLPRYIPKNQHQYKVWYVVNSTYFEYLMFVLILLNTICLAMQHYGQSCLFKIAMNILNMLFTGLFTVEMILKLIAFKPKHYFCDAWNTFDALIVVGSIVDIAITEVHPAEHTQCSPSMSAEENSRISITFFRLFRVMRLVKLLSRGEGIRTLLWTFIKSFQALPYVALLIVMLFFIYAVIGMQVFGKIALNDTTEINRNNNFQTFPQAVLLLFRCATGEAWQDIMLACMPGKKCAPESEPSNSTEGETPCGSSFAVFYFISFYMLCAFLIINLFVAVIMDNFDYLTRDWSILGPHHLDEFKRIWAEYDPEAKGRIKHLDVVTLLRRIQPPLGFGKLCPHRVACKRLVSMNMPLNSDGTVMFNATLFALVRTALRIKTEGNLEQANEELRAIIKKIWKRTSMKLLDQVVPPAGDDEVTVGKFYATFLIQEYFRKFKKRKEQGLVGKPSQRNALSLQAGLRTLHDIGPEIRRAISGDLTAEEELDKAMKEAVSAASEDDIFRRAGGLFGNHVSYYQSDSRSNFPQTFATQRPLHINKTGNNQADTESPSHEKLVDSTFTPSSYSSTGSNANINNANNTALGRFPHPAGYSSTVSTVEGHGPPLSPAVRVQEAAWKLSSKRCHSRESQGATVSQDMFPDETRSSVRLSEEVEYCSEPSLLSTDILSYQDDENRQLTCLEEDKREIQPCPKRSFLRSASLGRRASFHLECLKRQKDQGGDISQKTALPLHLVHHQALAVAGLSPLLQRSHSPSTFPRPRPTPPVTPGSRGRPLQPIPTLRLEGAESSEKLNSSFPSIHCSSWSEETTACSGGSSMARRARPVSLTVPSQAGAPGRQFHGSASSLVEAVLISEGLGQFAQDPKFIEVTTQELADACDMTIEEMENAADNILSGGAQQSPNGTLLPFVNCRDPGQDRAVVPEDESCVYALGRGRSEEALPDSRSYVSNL
T1 sequence (P54290 25-944 partner limits assumed): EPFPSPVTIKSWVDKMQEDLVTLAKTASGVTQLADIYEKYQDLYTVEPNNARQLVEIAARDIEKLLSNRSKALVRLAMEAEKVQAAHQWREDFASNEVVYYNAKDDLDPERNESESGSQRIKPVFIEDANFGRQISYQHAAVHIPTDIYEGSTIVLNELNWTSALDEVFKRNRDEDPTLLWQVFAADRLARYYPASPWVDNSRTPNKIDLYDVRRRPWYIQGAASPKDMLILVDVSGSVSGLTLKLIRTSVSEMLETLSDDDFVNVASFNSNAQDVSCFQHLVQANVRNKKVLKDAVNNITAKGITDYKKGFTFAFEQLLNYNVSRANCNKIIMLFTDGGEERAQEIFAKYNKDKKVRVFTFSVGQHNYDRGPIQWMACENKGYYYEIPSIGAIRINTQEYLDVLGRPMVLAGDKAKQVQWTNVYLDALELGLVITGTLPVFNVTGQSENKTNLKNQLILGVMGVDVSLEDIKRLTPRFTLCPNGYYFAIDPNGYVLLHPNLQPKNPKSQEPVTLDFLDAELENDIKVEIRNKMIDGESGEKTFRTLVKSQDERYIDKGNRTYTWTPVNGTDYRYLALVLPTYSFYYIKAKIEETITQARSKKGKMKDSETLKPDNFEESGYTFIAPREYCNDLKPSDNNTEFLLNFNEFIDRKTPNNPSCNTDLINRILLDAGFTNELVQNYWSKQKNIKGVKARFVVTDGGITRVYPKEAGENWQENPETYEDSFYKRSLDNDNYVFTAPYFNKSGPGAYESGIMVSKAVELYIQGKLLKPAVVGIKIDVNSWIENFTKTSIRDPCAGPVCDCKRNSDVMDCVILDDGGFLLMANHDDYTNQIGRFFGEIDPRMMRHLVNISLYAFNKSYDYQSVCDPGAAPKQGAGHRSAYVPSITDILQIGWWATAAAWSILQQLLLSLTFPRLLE
T1 sequence (P54290 945-1091 partner limits assumed): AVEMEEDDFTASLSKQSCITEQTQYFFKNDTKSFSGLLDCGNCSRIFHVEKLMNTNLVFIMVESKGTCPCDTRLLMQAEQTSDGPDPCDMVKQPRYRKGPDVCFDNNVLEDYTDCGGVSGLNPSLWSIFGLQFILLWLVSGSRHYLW
T1 sequence (P54287 whole entry partner): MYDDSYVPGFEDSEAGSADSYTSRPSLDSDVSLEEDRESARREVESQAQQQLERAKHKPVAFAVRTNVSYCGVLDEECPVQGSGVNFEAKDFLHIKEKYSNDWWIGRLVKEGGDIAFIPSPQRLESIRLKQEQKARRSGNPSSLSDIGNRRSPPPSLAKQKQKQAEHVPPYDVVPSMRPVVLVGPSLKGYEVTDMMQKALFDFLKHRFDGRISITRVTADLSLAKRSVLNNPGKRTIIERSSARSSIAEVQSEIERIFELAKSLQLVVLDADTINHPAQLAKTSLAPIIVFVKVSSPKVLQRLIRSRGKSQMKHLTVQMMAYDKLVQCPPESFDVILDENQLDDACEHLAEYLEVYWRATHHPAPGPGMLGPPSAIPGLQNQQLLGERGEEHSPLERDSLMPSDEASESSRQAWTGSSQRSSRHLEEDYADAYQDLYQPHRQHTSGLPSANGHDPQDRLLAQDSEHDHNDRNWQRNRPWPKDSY

A word on the Emax: it is the size of the effect at its maximum, as opposed to the concentration needed. Usually IC50 stands for the midpoint of a concentration-inhibition curve. `CC1(C)CCC[C@]2(C)[C@@H](CC(=O)Nc3ccccc3-n3cccc3)[C@](C)(O)CC[C@@H]12` [Compound 7]: the maximum response (Emax) in the assay with rat aorta rings (endothelium-denuded rat aorta rings pre-contracted by 25 mM KCl, read-out: Emax (percent maximal inhibition), KCl 25 mM-induced contraction) came to 94.3 ± 4.5%; in the assay with rat aorta rings (endothelium-denuded rat aorta rings pre-contracted by 60 mM KCl, read-out: Emax (percent maximal inhibition), KCl 60 mM-induced contraction) it was 89.7 ± 1.9%; at CaV1.2 channel [1] (read-out: Emax (percent maximal inhibition), IBa1.2), 90.5 ± 5.8%. Further, the IC50 in the assay on rat aorta rings (endothelium-denuded rat aorta rings pre-contracted by 25 mM KCl, read-out: IC50, KCl 25 mM-induced contraction) came out at 0.2 ± 0.1 µM; with rat aorta rings (endothelium-denuded rat aorta rings pre-contracted by 60 mM KCl, read-out: IC50, KCl 60 mM-induced contraction) it was 9.3 ± 2 µM; on CaV1.2 channel [1] (read-out: IC50, IBa1.2 inhibition), 13.2 ± 5.4 µM. Further, the “Slope act (slope factor of activation)” value on CaV1.2 channel [2] (10 µM compound) was determined as 8.36 ± 0.75. Besides, the results for the “Slope inact (slope factor of inactivation)” value at CaV1.2 channel [2] (10 µM compound) and on CaV1.2 channel [2] (30 µM compound) were −7.53 ± 0.24 and −7.70 ± 0.51, respectively. For the same compound, the “V50 inact (50% inactivation potential)” value at CaV1.2 channel [2] (10 µM compound) is recorded as −30.24 ± 1.29 mV; on CaV1.2 channel [2] (30 µM compound), −38.29 ± 2.00 mV. In addition, the “Ba2+ window current, potential of the peak” value on CaV1.2 channel [2] (10 µM, control peaked at −10 mV) is given as “about −15 mV”. In addition, the “Ba2+ window current, relative amplitude at peak” value at CaV1.2 channel [2] (10 µM, control relative amplitude 0.078) was 0.021.
